Data taken from ChEMBL document CHEMBL1201862, “PubChem BioAssay data set” (2004).
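Test compounds were applied to cells in 96-well plates for 48 hours at 5 doses. At the GI50, growth is halved.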 Activity calls are given as the source filed them. No stated cut-off is given here; in the data, active = GI50 up to about 1.1 µM and inactive = higher.

Columns and labels:
Assay in all cases: growth of human tumour cells (NCI), 48 h
A498 = test system: A498
ACHN = test system: ACHN
CCRF-CEM = test system: CCRF-CEM
DLD-1 = test system: DLD-1
DU-145 = test system: DU-145
HCT-116 = test system: HCT-116
HOP-62 = test system: HOP-62
HOP-92 = test system: HOP-92
K562 = test system: K562
MDA-N = test system: MDA-N
Malme-3M = test system: Malme-3M
NCI-H23 = test system: NCI-H23
OVCAR-5 = test system: OVCAR-5
PC-3 = test system: PC-3
SF-268 = test system: SF-268
SNB-19 = test system: SNB-19
SNB-75 = test system: SNB-75
SR = test system: SR
UACC-62 = test system: UACC-62

Row | SMILES | GI50 (A498) | GI50 (ACHN) | GI50 (CCRF-CEM) | GI50 (DLD-1) | GI50 (DU-145) | GI50 (HCT-116) | GI50 (HOP-62) | GI50 (HOP-92) | GI50 (K562) | GI50 (MDA-N) | GI50 (Malme-3M) | GI50 (NCI-H23) | GI50 (OVCAR-5) | GI50 (PC-3) | GI50 (SF-268) | GI50 (SNB-19) | GI50 (SNB-75) | GI50 (SR) | GI50 (UACC-62)
1 | Nc1nncs1 | 867 µM (inactive) | 1520 µM (inactive) | 1010 µM (inactive) | 641 µM (inactive) | 2070 µM (inactive) | 1500 µM (inactive) | 724 µM (inactive) | 2260 µM (inactive) | 1320 µM (inactive) | 1950 µM (inactive) | 3590 µM (inactive) | 1640 µM (inactive) | 1870 µM (inactive) | 2610 µM (inactive) | 3950 µM (inactive) | 3730 µM (inactive) | 1440 µM (inactive) | 2000 µM (inactive) | 1910 µM (inactive)
2 | CC1C(=O)C(C)C(c2ccco2)N(N=O)C1c1ccco1 (stereo not drawn) | > 100 µM (inactive) | – | > 100 µM (inactive) | > 100 µM (inactive) | – | > 100 µM (inactive) | > 100 µM (inactive) | > 68.4 µM (inactive) | > 100 µM (inactive) | – | > 100 µM (inactive) | > 100 µM (inactive) | > 100 µM (inactive) | – | > 100 µM (inactive) | > 84.1 µM (inactive) | > 82.8 µM (inactive) | – | > 100 µM (inactive)
3 | CC1=C2C(O)C(C(C)C(=O)N(C)C)CCC2(C)C=CC1=O (stereo not drawn) | > 100 µM (inactive) | – | > 100 µM (inactive) | > 100 µM (inactive) | – | > 100 µM (inactive) | > 100 µM (inactive) | > 100 µM (inactive) | > 100 µM (inactive) | – | – | > 100 µM (inactive) | > 100 µM (inactive) | – | > 100 µM (inactive) | > 100 µM (inactive) | > 100 µM (inactive) | – | > 100 µM (inactive)
4 | Cc1cc(C)c2c(=O)n(CN3CCC(O)(c4ccccc4)CC3)sc2n1 | 78.3 µM (inactive) | 19.4 µM (inactive) | 19.4 µM (inactive) | – | 38.3 µM (inactive) | 39.9 µM (inactive) | 34.7 µM (inactive) | > 100 µM (inactive) | 24 µM (inactive) | 19.6 µM (inactive) | 17.6 µM (inactive) | 27.8 µM (inactive) | 23 µM (inactive) | 60.1 µM (inactive) | 31.1 µM (inactive) | > 100 µM (inactive) | 19.2 µM (inactive) | 29.9 µM (inactive) | 50.9 µM (inactive)
5 | Cc1cc(N(CCOS(C)(=O)=O)CCOS(C)(=O)=O)ccc1/C=N/c1ccc(-c2csc(-c3ccc(Br)cc3)n2)cc1 | 2.11 µM (inactive) | 0.518 µM (active) | 1.12 µM (inactive) | – | 1.91 µM (inactive) | 27.5 µM (inactive) | 4.58 µM (inactive) | 14.4 µM (inactive) | 12.2 µM (inactive) | 14.7 µM (inactive) | 21.9 µM (inactive) | 5.07 µM (inactive) | 17.3 µM (inactive) | 19.5 µM (inactive) | 9.95 µM (inactive) | 19.4 µM (inactive) | 3.99 µM (inactive) | 1.7 µM (inactive) | 3.66 µM (inactive)
6 | COc1cc(/C=C/C(=O)Oc2ccccc2)ccc1C(=O)O/C=C/c1ccccc1 | > 21.5 µM (inactive) | > 100 µM (inactive) | 17.7 µM (inactive) | > 100 µM (inactive) | > 100 µM (inactive) | > 100 µM (inactive) | > 100 µM (inactive) | > 100 µM (inactive) | > 100 µM (inactive) | > 100 µM (inactive) | > 100 µM (inactive) | > 100 µM (inactive) | > 100 µM (inactive) | > 100 µM (inactive) | > 100 µM (inactive) | > 100 µM (inactive) | > 100 µM (inactive) | – | > 100 µM (inactive)
7 | COc1cc(OC)c(/C=C\c2cc(/C=C/c3c(OC)cc(OC)cc3OC)c3ccccc3[n+]2C)c(OC)c1 | 4.59 µM (inactive) | 4.59 µM (inactive) | 1.38 µM (inactive) | – | 5.94 µM (inactive) | 2.47 µM (inactive) | 1.07 µM (active) | 2.95 µM (inactive) | 1.64 µM (inactive) | 2.65 µM (inactive) | 1.96 µM (inactive) | 2.76 µM (inactive) | 13.2 µM (inactive) | 2.6 µM (inactive) | 2.52 µM (inactive) | 8.47 µM (inactive) | 2.77 µM (inactive) | 2.24 µM (inactive) | 2.82 µM (inactive)
8 | N=C(N)SCc1cn2ccccc2n1 | – | > 100 µM (inactive) | > 100 µM (inactive) | 77.8 µM (inactive) | – | > 100 µM (inactive) | > 100 µM (inactive) | – | > 100 µM (inactive) | – | > 100 µM (inactive) | > 100 µM (inactive) | > 100 µM (inactive) | – | > 100 µM (inactive) | > 100 µM (inactive) | > 100 µM (inactive) | > 100 µM (inactive) | –
9 | O=C(Nc1ccccc1C(=O)NCCCO)/C(=C/c1ccccc1O)NC(=O)c1ccccc1 | > 91.2 µM (inactive) | 30.8 µM (inactive) | > 100 µM (inactive) | – | > 81.8 µM (inactive) | 37.3 µM (inactive) | 20.5 µM (inactive) | 53.3 µM (inactive) | > 100 µM (inactive) | > 43.5 µM (inactive) | 95.3 µM (inactive) | 36.1 µM (inactive) | > 100 µM (inactive) | 33.1 µM (inactive) | 35.6 µM (inactive) | 16.9 µM (inactive) | 20.2 µM (inactive) | > 100 µM (inactive) | 19.5 µM (inactive)
10 | CC(C)=CC1C(C(=O)OCc2cc3c(cc2Cl)OCO3)C1(C)C (stereo not drawn) | 26.9 µM (inactive) | 28.7 µM (inactive) | 32.6 µM (inactive) | – | > 100 µM (inactive) | 26.4 µM (inactive) | 22.7 µM (inactive) | 31.7 µM (inactive) | 20.1 µM (inactive) | 24.7 µM (inactive) | 15.5 µM (inactive) | 25.8 µM (inactive) | 39.2 µM (inactive) | 11.5 µM (inactive) | 39.7 µM (inactive) | > 100 µM (inactive) | 26.9 µM (inactive) | 15.7 µM (inactive) | 43.1 µM (inactive)
11 | CN(C)Cc1cc(/N=N/c2cccc(Cl)c2)ccc1O | 10.9 µM (inactive) | 3.29 µM (inactive) | 15.8 µM (inactive) | – | 6.9 µM (inactive) | 15.2 µM (inactive) | 10.2 µM (inactive) | 6.78 µM (inactive) | 3.27 µM (inactive) | 10.2 µM (inactive) | 16.7 µM (inactive) | 19.9 µM (inactive) | 14.9 µM (inactive) | 16.6 µM (inactive) | 11.6 µM (inactive) | 18.8 µM (inactive) | 16.1 µM (inactive) | 20.1 µM (inactive) | 3.61 µM (inactive)
12 | CC1=C[C@@H](C)C[C@]2(C)CC[C@H](O2)[C@]23CC[C@](CO)(C[C@H](O2)[C@@H]2O[C@@](C)(CC2=O)[C@@H](O)[C@H]2CC[C@@]4(CCC[C@@H](O4)[C@H](C)C(=O)O[C@H]4C[C@H]([C@]5(O)OCC[C@H](C)[C@@H]5O)O[C@H]4C=C1)O2)O3 | 0.00229 µM (active) | 0.0249 µM (active) | 0.00471 µM (active) | – | 0.247 µM (active) | 0.0222 µM (active) | 0.00345 µM (active) | 0.00163 µM (active) | 0.0183 µM (active) | 0.0951 µM (active) | 0.00873 µM (active) | 0.0935 µM (active) | 0.0316 µM (active) | 0.0137 µM (active) | 0.00279 µM (active) | 0.0197 µM (active) | 0.001 µM (active) | 0.0139 µM (active) | 0.00325 µM (active)
